What was measured:
human TRPV2 = target: T1, human TRPV2 (Homo sapiens, UniProt Q9Y5S1); test: Calcium flux in HEK-293 cells overexpressing TRPV2; format: cell-based; conditions: concentrations up to 1 mmol/L
T1 sequence (Q9Y5S1 1-764): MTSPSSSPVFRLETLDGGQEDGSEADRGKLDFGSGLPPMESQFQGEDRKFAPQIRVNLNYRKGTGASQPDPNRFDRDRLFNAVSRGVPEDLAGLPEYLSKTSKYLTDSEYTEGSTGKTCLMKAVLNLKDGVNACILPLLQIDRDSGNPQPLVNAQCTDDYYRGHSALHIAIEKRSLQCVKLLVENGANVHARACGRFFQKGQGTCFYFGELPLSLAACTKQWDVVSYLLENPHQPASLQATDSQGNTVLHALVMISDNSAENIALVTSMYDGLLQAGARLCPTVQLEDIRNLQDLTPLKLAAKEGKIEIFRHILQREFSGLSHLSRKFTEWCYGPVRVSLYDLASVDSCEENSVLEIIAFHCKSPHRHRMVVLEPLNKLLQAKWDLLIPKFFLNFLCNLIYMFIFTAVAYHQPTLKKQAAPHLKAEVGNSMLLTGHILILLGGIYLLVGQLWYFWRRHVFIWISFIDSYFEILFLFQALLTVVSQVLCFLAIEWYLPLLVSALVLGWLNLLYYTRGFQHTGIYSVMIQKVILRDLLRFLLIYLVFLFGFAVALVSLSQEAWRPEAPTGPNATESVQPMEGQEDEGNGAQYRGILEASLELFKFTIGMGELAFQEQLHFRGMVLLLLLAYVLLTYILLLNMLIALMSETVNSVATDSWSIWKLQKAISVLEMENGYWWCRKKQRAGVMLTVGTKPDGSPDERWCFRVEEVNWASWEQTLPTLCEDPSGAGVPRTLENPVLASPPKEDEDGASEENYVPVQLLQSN

TRPV3-R696K = target: T2, TRPV3-R696K (Homo sapiens, UniProt Q8NET8, R696K); test: Calcium flux in HEK-293 cells transiently transfected with TRPV3-R696K; format: cell-based; conditions: 100 μmol/L carvacrol, 100 μmol/L 2-APB, 100 and 200 μmol/L drofenine
T2 sequence (Q8NET8 1-790 R696K): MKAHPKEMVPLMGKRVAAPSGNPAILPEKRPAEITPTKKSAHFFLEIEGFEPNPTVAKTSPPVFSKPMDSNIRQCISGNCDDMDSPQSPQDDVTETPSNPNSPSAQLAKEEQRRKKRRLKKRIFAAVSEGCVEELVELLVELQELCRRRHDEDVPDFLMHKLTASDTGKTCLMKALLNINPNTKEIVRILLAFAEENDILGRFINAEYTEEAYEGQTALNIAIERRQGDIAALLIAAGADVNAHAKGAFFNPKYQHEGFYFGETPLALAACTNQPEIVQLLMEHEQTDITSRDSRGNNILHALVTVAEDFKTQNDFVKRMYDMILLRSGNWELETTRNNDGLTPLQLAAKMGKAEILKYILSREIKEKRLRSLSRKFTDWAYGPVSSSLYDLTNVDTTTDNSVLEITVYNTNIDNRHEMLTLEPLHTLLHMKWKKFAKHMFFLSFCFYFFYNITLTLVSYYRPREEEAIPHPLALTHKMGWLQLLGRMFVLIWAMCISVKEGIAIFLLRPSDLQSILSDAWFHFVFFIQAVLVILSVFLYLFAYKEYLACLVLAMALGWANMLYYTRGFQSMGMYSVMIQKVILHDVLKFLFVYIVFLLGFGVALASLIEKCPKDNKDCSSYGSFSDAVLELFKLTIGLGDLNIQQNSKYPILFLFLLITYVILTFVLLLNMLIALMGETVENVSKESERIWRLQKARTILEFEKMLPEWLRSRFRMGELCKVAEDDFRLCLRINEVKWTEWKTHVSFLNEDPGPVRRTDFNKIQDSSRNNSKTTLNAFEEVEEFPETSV

[1] = system: neomycin-induced hair cell loss; conditions: ref Coffin et al. [2010]; cited from earlier work

activation of TRPV2 (human TRPV2): not observed
calcium flux in TRPV3-R696K (TRPV3-R696K): diminished-to-no-function
SMILES: CCN(CC)CCOC(=O)C(c1ccccc1)C1CCCCC1 (stereo not drawn) [drofenine]
effect on neomycin-induced hair cell loss [1]: inhibitor of neomycin-induced hair cell loss

Reference: article PMC4115637 (Pharmacology Research & Perspectives, 2014)
